System: EKP-induced epileptiform discharges in zebrafish larvae
Experiment: Zebrafish EKP seizure model, electrophysiology (non-invasive LFP recordings, PSD analysis)
Assay type: in vivo, zebrafish (Danio rerio)
Conditions: 2 μM, 22 h, 7 dpf larvae
Method: Non-invasive LFP recordings were measured from the midbrain (optic tectum) of 7 dpf zebrafish larvae pre-incubated with VHC only, EKP only, or compound and EKP. […] These steps occurred at 28° C., while further manipulation and electrophysiological recordings occurred at room temperature (±21° C.) and were performed as described before (16, 27). Each recording lasted 600 seconds.
A power spectral density (PSD) analysis of the recordings was performed using MatLab R2019 software (MATrix LABoratory, USA) as described in (26). The PSD estimate of each LFP recording was summed over each 10 Hz frequency band, ranging from 0 to 160 Hz. Next, the PSD estimates were normalized against the VHC control. Data are expressed as mean±SEM PSD per larva and per condition over the 20-90 Hz region. Outliers were identified via the ROUT test (Q=1%).
PSD analysis assumes that the epileptiform activity manifests as a high-power oscillation at certain frequencies (26). Thus, if epileptic activity occurs often during the recording an elevated PSD estimate should be found at the corresponding frequency band(s) (26).

With Cn1nc(C#Cc2cccc(Cl)c2)c2cccnc21 [Compound 10.2, 3-((3-chlorophenyl)ethynyl)-1-methyl-1H-pyrazolo[3,4-b]pyridine] the “effect on EKP-induced elevated PSD (in words)” value was “did not”.

Same assay, conditions: 2 μM, 22 h incubation, 7 dpf larvae; mean, normalized PSD 20-90 Hz

First: CC(C)(C)c1ccc(C#CC(=O)c2ccccc2)cc1 [Compound 1.16, 3-(4-(tert-butyl)phenyl)-1-phenylprop-2-yn-1-one]
Second: CC(C)(C)c1ccc(C#CC(=O)c2ccccc2O)cc1 [Compound 1.19, 3-(4-(tert-butyl)phenyl)-1-(2-hydroxyphenyl)prop-2-yn-1-one]
The “efficacy against EKP-induced epileptiform discharges 2 μM” value of the first is higher: 38% for the first, −23% for the second.

Going from O=C(C#Cc1cccc(Cl)c1)c1cccnc1 [Compound 1.25, 3-(3-chlorophenyl)-1-(pyridin-3-yl)prop-2-yn-1-one] to O=C(C#Cc1cccc(Cl)c1)c1ccccc1 [Compound 1.34, 3-(3-chlorophenyl)-1-phenylprop-2-yn-1-one], the “efficacy against EKP-induced epileptiform discharges 2 μM” value rises from −43% to 21%.

Going from Cc1ccc(C#CC(=O)c2ccccc2)cc1 [Compound 1.30, 1-phenyl-3-(p-tolyl)prop-2-yn-1-one] to COc1ccc(C#CC(=O)c2ccccc2)cc1 [Compound 1.29, 3-(4-methoxyphenyl)-1-phenylprop-2-yn-1-one], the “efficacy against EKP-induced epileptiform discharges 2 μM” value falls from 28% to 26%.

Compared with Cc1cccc(C#CC(=O)c2ccccc2)c1 [Compound 1.33, 1-phenyl-3-(m-tolyl)prop-2-yn-1-one], COc1cccc(C#CC(=O)c2ccccc2)c1 [Compound 1.32, 3-(3-methoxyphenyl)-1-phenylprop-2-yn-1-one] is lower in “efficacy against EKP-induced epileptiform discharges 2 μM” value: 50% for the first, 29% for the second.

Going from CC(C)(C)c1ccc(C#CC(=O)c2ccccc2N)cc1 [Compound 1.14, 1-(2-aminophenyl)-3-(4-(tert-butyl)phenyl)prop-2-yn-1-one] to CC(C)(C)c1ccc(C#CC(=O)c2cccc(F)c2)cc1 [Compound 1.39, 3-(4-(tert-butyl)phenyl)-1-(3-fluorophenyl)prop-2-yn-1-one], the “efficacy against EKP-induced epileptiform discharges 2 μM” value falls from 60% to −61%.

Compared with CC(C)(C)c1ccc(C#CC=O)cc1 [Compound 2.1, 3-(4-(tert-butyl)phenyl)propiolaldehyde], CC(C)(C)c1ccc(C#CC(=O)c2cccnc2)cc1 [Compound 1.15, 3-(4-(tert-butyl)phenyl)-1-(pyridin-3-yl)prop-2-yn-1-one] is lower in “efficacy against EKP-induced epileptiform discharges 2 μM” value: 30% for the first, −49% for the second.

First: Nc1ncccc1C(=O)C#Cc1ccc(Cl)cc1 [Compound 1.7, 1-(2-aminopyridin-3-yl)-3-(4-chlorophenyl)prop-2-yn-1-one]
Second: Cc1ccc(C#CC(=O)c2cccnc2N)cc1 [Compound 1.12, 1-(2-aminopyridin-3-yl)-3-(p-tolyl)prop-2-yn-1-one]
The “efficacy against EKP-induced epileptiform discharges 2 μM” value of the first is lower: 70% for the first, 86% for the second.

First: O=C(C#Cc1cccc(Cl)c1)c1ncc[nH]1 [Compound 1.26, 3-(3-chlorophenyl)-1-(1H-imidazol-2-yl)prop-2-yn-1-one]
Second: Nc1ncccc1C(=O)C#Cc1cccc(Cl)c1 [Compound 1.10, 1-(2-aminopyridin-3-yl)-3-(3-chlorophenyl)prop-2-yn-1-one]
The “efficacy against EKP-induced epileptiform discharges 2 μM” value of the first is higher: 51% for the first, −42% for the second.

Compared with O=C(C#Cc1ccccc1)c1ccccc1 [Compound 1.28, 1,3-diphenylprop-2-yn-1-one], O=C(C#Cc1ccccc1Cl)c1ccccc1 [Compound 1.38, 3-(2-chlorophenyl)-1-phenylprop-2-yn-1-one] is lower in “efficacy against EKP-induced epileptiform discharges 2 μM” value: 25% for the first, −63% for the second.

Going from Nc1ncccc1C(O)C#Cc1cccc(Cl)c1 (racemic) [Compound 3.4, rac-1-(2-aminopyridin-3-yl)-3-(3-chlorophenyl)prop-2-yn-1-ol] to Cn1nc(C#Cc2cccc(Cl)c2)c2cccnc21 [Compound 10.2, 3-((3-chlorophenyl)ethynyl)-1-methyl-1H-pyrazolo[3,4-b]pyridine], the “efficacy against EKP-induced epileptiform discharges 2 μM” value rises from 7% to 19%.

Going from COc1ccccc1C#CC(=O)c1ccccc1 [Compound 1.36, 3-(2-methoxyphenyl)-1-phenylprop-2-yn-1-one] to Cc1ccccc1C#CC(=O)c1ccccc1 [Compound 1.37, 1-phenyl-3-(o-tolyl)prop-2-yn-1-one], the “efficacy against EKP-induced epileptiform discharges 2 μM” value falls from 52% to 28%.

First: COc1ccc(C#CC(=O)c2cccnc2N)cc1 [Compound 1.9, 1-(2-aminopyridin-3-yl)-3-(4-methoxyphenyl)prop-2-yn-1-one]
Second: Nc1ncccc1C(=O)C#Cc1ccc(F)cc1 [Compound 1.2, 1-(2-aminopyridin-3-yl)-3-(4-fluorophenyl)prop-2-yn-1-one]
The “efficacy against EKP-induced epileptiform discharges 2 μM” value of the first is lower: 35% for the first, 80% for the second.

Going from CC(C)(C)c1ccc(C2=CC(c3ccccc3)=CS(C)(=O)=C2)cc1 (stereo not drawn) [Compound 9.1, 3-(4-(tert-butyl)phenyl)-1-methyl-5-phenyl-1λ^6-thiopyran 1-oxide] to CC(C)(C)c1ccc(C#CC(O)c2ccccc2O)cc1 (racemic) [Compound 3.2, rac-2-(3-(4-(tert-butyl)phenyl)-1-hydroxyprop-2-yn-1-yl)phenol], the “efficacy against EKP-induced epileptiform discharges 2 μM” value falls from 51% to 26%.

Going from Nc1ccccc1C(=O)C#Cc1cccc(Cl)c1 [Compound 1.40, 1-(2-aminophenyl)-3-(3-chlorophenyl)prop-2-yn-1-one] to CN(C)c1ncccc1C(=O)C#Cc1cccc(Cl)c1 [Compound 1.27, 3-(3-chlorophenyl)-1-(2-(dimethylamino)pyridin-3-yl)prop-2-yn-1-one], the “efficacy against EKP-induced epileptiform discharges 2 μM” value falls from 82% to −52%.

First: Nc1ncccc1C(=O)/C=C/c1cccc(Cl)c1 [Compound 5.2, (E)-1-(2-aminopyridin-3-yl)-3-(3-chlorophenyl)prop-2-en-1-one]
Second: Nc1ncccc1C(=O)C#Cc1ccccc1 [Compound 1.1, 1-(2-aminopyridin-3-yl)-3-phenylprop-2-yn-1-one]
The “efficacy against EKP-induced epileptiform discharges 2 μM” value of the first is lower: 55% for the first, 65% for the second.

First: Nc1ncccc1C(=O)C#CC1CCCCC1 [Compound 1.4, 1-(2-aminopyridin-3-yl)-3-cyclohexylprop-2-yn-1-one]
Second: CC(C)C#CC(=O)c1cccnc1N [Compound 1.6, 1-(2-aminopyridin-3-yl)-4-methylpent-2-yn-1-one]
The “efficacy against EKP-induced epileptiform discharges 2 μM” value of the first is higher: 69% for the first, 1% for the second.

Going from Nc1ncccc1C(=O)C#Cc1ccc(C(F)(F)F)cc1 [Compound 1.11, 1-(2-aminopyridin-3-yl)-3-(4-(trifluoromethyl)phenyl)prop-2-yn-1-one] to CCCCCC#CC(=O)c1cccnc1N [Compound 1.5, 1-(2-aminopyridin-3-yl)oct-2-yn-1-one], the “efficacy against EKP-induced epileptiform discharges 2 μM” value rises from 47% to 91%.

Going from Clc1cccc(C#Cc2n[nH]c3ccccc23)c1 [Compound 11.1, 3-((3-chlorophenyl)ethynyl)-1H-indazole] to CC(C)[Si](C#CC(=O)c1cccnc1N)(C(C)C)C(C)C [Compound 1.3, 1-(2-aminopyridin-3-yl)-3-(triisopropylsilyl)prop-2-yn-1-one], the “efficacy against EKP-induced epileptiform discharges 2 μM” value rises from 60% to 67%.

Same assay, conditions: 10 μM, 22 h, 7 dpf larvae

With Cn1nc(C#Cc2cccc(Cl)c2)c2cccnc21 [Compound 10.2, 3-((3-chlorophenyl)ethynyl)-1-methyl-1H-pyrazolo[3,4-b]pyridine] the “effect on EKP-induced elevated PSD (in words)” value was “significant decrease”.

Same assay, conditions: 10 μM, 22 h incubation, 7 dpf larvae; mean, normalized PSD 20-90 Hz

Compared with Nc1ncccc1C(O)C#Cc1cccc(Cl)c1 (racemic) [Compound 3.4, rac-1-(2-aminopyridin-3-yl)-3-(3-chlorophenyl)prop-2-yn-1-ol], Cn1nc(C#Cc2cccc(Cl)c2)c2cccnc21 [Compound 10.2, 3-((3-chlorophenyl)ethynyl)-1-methyl-1H-pyrazolo[3,4-b]pyridine] is higher in “efficacy against EKP-induced epileptiform discharges 10 μM” value: 7% for the first, 76% for the second.

First: CC(C)(C)c1ccc(C#CC(O)c2ccccc2O)cc1 (racemic) [Compound 3.2, rac-2-(3-(4-(tert-butyl)phenyl)-1-hydroxyprop-2-yn-1-yl)phenol]
Second: CC(C)[Si](C#CC(=O)c1cccnc1N)(C(C)C)C(C)C [Compound 1.3, 1-(2-aminopyridin-3-yl)-3-(triisopropylsilyl)prop-2-yn-1-one]
The “efficacy against EKP-induced epileptiform discharges 10 μM” value of the first is higher: 57% for the first, −23% for the second.
